Source: US8324245B2, “Quinoline derivative and quinazoline derivative inhibiting self-phosphorylation of hepatocytus proliferator receptor, and medicinal composition containing the same” (Kyowa Hakko Kirin Co., Ltd., priority 2001, dated 2012)

Target: T1, met (HGF receptor) in human gastric cancer cells MKN45 (Homo sapiens, UniProt P08581)
T1 construct: endogenous in cells; host or cells: MKN45 human gastric cancer cells
Assay: Inhibitory activity against met-autophosphorylation using ELISA method (2), MKN45 cells, HGF-independent
Assay type: cell-based
How it was run: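 MKN45 cells, 3×10^4 per well in RPMI with 0.1% FCS overnight, were exposed to compound in DMSO for 1 h at 37 °C without HGF. Lysates were captured on anti-phosphotyrosine (PY20) plates, Met detected with anti-Met and peroxidase secondary antibody, absorbance at 450 nm.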

T1 sequence (P08581 25-1390): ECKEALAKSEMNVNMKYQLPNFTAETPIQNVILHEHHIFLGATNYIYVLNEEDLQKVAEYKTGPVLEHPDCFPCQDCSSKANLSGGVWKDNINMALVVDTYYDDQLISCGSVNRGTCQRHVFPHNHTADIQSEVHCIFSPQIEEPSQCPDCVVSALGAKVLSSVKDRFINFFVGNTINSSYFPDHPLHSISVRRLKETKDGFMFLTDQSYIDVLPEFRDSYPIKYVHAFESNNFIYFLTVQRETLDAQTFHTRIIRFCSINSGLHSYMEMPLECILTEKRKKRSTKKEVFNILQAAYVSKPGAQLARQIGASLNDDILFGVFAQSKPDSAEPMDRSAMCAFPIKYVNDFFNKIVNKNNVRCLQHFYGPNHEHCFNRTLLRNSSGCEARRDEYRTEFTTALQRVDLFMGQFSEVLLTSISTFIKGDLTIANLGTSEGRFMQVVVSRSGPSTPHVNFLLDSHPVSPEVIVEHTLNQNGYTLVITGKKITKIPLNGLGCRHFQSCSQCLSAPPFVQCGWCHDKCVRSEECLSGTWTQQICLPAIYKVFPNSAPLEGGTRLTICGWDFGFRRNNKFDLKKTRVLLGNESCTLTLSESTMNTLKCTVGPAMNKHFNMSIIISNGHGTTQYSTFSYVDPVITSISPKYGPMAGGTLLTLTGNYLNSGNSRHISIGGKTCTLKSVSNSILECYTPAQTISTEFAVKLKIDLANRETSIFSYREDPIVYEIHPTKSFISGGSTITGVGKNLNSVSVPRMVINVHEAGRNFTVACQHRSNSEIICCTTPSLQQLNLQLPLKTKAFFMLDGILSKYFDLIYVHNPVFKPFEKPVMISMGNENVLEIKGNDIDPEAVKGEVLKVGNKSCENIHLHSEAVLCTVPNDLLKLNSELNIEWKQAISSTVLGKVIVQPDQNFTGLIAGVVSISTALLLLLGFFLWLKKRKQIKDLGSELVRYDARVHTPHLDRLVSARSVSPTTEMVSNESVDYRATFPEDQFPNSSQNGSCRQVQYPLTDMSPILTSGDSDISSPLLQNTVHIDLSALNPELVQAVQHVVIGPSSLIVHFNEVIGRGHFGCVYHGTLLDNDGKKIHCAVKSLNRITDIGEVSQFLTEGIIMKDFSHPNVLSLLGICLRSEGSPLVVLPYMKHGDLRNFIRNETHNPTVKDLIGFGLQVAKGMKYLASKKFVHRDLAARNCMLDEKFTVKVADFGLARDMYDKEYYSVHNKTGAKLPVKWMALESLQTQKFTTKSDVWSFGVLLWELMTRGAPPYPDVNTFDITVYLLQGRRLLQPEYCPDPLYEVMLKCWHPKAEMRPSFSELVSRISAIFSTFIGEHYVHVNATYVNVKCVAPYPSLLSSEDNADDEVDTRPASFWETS

COc1cc2nccc(Oc3ccc(NC(=S)NC(=O)Cc4ccc(Cl)cc4)cc3Cl)c2cc1OC [Example 189, 1-[3-chloro-4-(6,7-dimethoxyquinolin-4-yloxy)phenyl]-3-[2-(4-chlorophenyl)acetyl]thiourea]
IC50: 232 nM

COc1cc2nccc(Oc3ccc(NC(=S)NC(=O)Cc4ccc(C)cc4)cc3F)c2cc1OC [Example 190, 1-[4-(6,7-dimethoxyquinolin-4-yloxy)-3-fluorophenyl]-3-(2-p-tolylacetyl)thiourea]
IC50: 224 nM

COc1cc2nccc(Oc3ccc(NC(=S)NC(=O)CC4CCC(C)CC4)c(F)c3)c2cc1OC (centres unmarked) [Example 191, 1-[4-(6,7-dimethoxyquinolin-4-yloxy)-2-fluorophenyl]-3-[2-(4-methyl-cyclohexyl)acetyl]thiourea]
IC50: 977 nM

COc1cc2nccc(Oc3ccc(NC(=S)NC(=O)CC4CCC(C)CC4)cc3F)c2cc1OC (centres unmarked) [Example 192, 1-[4-(6,7-dimethoxyquinolin-4-yloxy)-3-fluorophenyl]-3-[2-(4-methyl-cyclohexyl)acetyl]thiourea]
IC50: 687 nM

CCCCOCC(=O)NC(=S)Nc1ccc(Oc2ccnc3cc(OC)c(OC)cc23)c(Cl)c1 [Example 193, 1-(2-butoxyacetyl)-3-[3-chloro-4-(6,7-dimethoxyquinolin-4-yloxy)phenyl]thiourea]
IC50: 444 nM

COc1cc2nccc(Oc3ccc(NC(=S)NC(=O)Cc4cccc(F)c4F)c(F)c3)c2cc1OC [Example 194, 1-[2-(2,3-difluorophenyl)acetyl]-3-[4-(6,7-dimethoxyquinolin-4-yloxy)-2-fluorophenyl]thiourea]
IC50: 319 nM

COc1cc2nccc(Oc3ccc(NC(=S)NC(=O)Cc4cc(F)ccc4F)cc3F)c2cc1OC [Example 195, 1-[2-(2,5-difluorophenyl)acetyl]-3-[4-(6,7-dimethoxyquinolin-4-yloxy)-3-fluorophenyl]thiourea]
IC50: 291 nM

COc1cc2nccc(Oc3ccc(NC(=S)NC(=O)Cc4cc(F)cc(F)c4)c(F)c3)c2cc1OC [Example 196, 1-[2-(3,5-difluorophenyl)acetyl]-3-[4-(6,7-dimethoxyquinolin-4-yloxy)-2-fluorophenyl]thiourea]
IC50: 322 nM

COc1cc2nccc(Oc3ccc(NC(=S)NC(=O)Cc4cc(F)cc(F)c4)cc3F)c2cc1OC [Example 197, 1-[2-(3,5-difluorophenyl)acetyl]-3-[4-(6,7-dimethoxyquinolin-4-yloxy)-3-fluorophenyl]thiourea]
IC50: 284 nM

COc1cc2nccc(Oc3ccc(NC(=S)NC(=O)Cc4ccc(F)c(F)c4)c(F)c3)c2cc1OC [Example 198, 1-[2-(3,4-difluorophenyl)acetyl]-3-[4-(6,7-dimethoxyquinolin-4-yloxy)-2-fluorophenyl]thiourea]
IC50: 294 nM

COc1cc2nccc(Oc3ccc(NC(=S)NC(=O)Cc4ccc(F)c(F)c4)cc3F)c2cc1OC [Example 199, 1-[2-(3,4-difluorophenyl)acetyl]-3-[4-(6,7-dimethoxyquinolin-4-yloxy)-3-fluorophenyl]thiourea]
IC50: 241 nM

COc1cc2nccc(Oc3ccc(NC(=S)NC(=O)Cc4ccccc4C(F)(F)F)c(F)c3)c2cc1OC [Example 200, 1-[4-(6,7-dimethoxyquinolin-4-yloxy)-2-fluorophenyl]-3-[2-(2-trifluoromethylphenyl)acetyl]-thiourea]
IC50: 305 nM

COc1cc2nccc(Oc3ccc(NC(=S)NC(=O)Cc4ccccc4C(F)(F)F)cc3F)c2cc1OC [Example 201, 1-[4-(6,7-dimethoxyquinolin-4-yloxy)-3-fluorophenyl]-3-[2-(2-trifluoromethylphenyl)acetyl]-thiourea]
IC50: 226 nM

COc1cc2nccc(Oc3ccc(NC(=S)NC(=O)Cc4cccc(C(F)(F)F)c4)c(F)c3)c2cc1OC [Example 202, 1-[4-(6,7-dimethoxyquinolin-4-yloxy)-2-fluorophenyl]-3-[2-(3-trifluoromethylphenyl)acetyl]-thiourea]
IC50: 642 nM

COc1cc2nccc(Oc3ccc(NC(=S)NC(=O)Cc4cccc(C(F)(F)F)c4)cc3F)c2cc1OC [Example 203, 1-[4-(6,7-dimethoxyquinolin-4-yloxy)-3-fluorophenyl]-3-[2-(3-trifluoromethylphenyl)acetyl]-thiourea]
IC50: 281 nM

COc1cc2nccc(Oc3ccc(NC(=S)NC(=O)Cc4c(F)ccc(F)c4F)cc3)c2cc1OC [Example 204, 1-[4-(6,7-dimethoxyquinolin-4-yloxy)phenyl]-3-[2-(2,3,6-trifluorophenyl)acetyl]thiourea]
IC50: 321 nM

COc1cc2nccc(Oc3ccc(NC(=S)NC(=O)Cc4c(F)ccc(F)c4F)c(F)c3)c2cc1OC [Example 205, 1-[4-(6,7-dimethoxyquinolin-4-yloxy)-2-fluorophenyl]-3-[2-(2,3,6-trifluorophenyl)acetyl]-thiourea]
IC50: 265 nM

COc1cc2nccc(Oc3ccc(NC(=S)NC(=O)Cc4c(F)ccc(F)c4F)cc3F)c2cc1OC [Example 206, 1-[4-(6,7-dimethoxyquinolin-4-yloxy)-3-fluorophenyl]-3-[2-(2,3,6-trifluorophenyl)acetyl]-thiourea]
IC50: 444 nM

COc1cc2nccc(Oc3ccc(NC(=S)NC(=O)Cc4c(F)ccc(F)c4F)cc3Cl)c2cc1OC [Example 207, 1-[3-chloro-4-(6,7-dimethoxyquinolin-4-yloxy)phenyl]-3-[2-(2,3,6-trifluorophenyl)acetyl]-thiourea]
IC50: 300 nM

COc1cc2nccc(Oc3ccc(NC(=S)NC(=O)Cc4c(Cl)cccc4Cl)c(F)c3)c2cc1OC [Example 208, 1-[2-(2,6-dichlorophenyl)acetyl]-3-[4-(6,7-dimethoxyquinolin-4-yloxy)-2-fluorophenyl]thiourea]
IC50: 258 nM

CCCCNC(=O)CC(=O)Nc1ccc(Oc2ccnc3cc(OC)c(OC)cc23)cc1 [Example 209, N-butyl-N′-[4-(6,7-dimethoxyquinolin-4-yloxy)phenyl]malonamide]
IC50: 928 nM

COc1cc2nccc(Oc3ccc(NC(=O)CC(=O)Nc4cccc(Cl)c4)cc3)c2cc1OC [Example 210, N-(3-chlorophenyl)-N′-[4-(6,7-dimethoxy-quinolin-4-yloxy)phenyl]malonamide]
IC50: 228 nM

COc1ccccc1NC(=O)CC(=O)Nc1ccc(Oc2ccnc3cc(OC)c(OC)cc23)cc1 [Example 211, N-[4-(6,7-dimethoxyquinolin-4-yloxy)phenyl]-N′-(2-methoxyphenyl)malonamide]
IC50: 252 nM

COc1cc2nccc(Oc3ccc(NC(=O)CC(=O)NC4CCC4)cc3)c2cc1OC [Example 212, N-cyclobutyl-N′-[4-(6,7-dimethoxyquinolin-4-yloxy)phenyl]malonamide]
IC50: 379 nM

COC(=O)c1cccc(NC(=O)CC(=O)Nc2ccc(Oc3ccnc4cc(OC)c(OC)cc34)cc2)c1 [Example 213, methyl 3-{2-[4-(6,7-dimethoxyquinolin-4-yloxy)phenylcarbamoyl]acetylamino}benzoate]
IC50: 2430 nM

COc1cc2nccc(Oc3ccc(NC(=O)CC(=O)NC(C)c4ccccc4)cc3)c2cc1OC (centres unmarked) [Example 214, N-[4-(6,7-dimethoxyquinolin-4-yloxy)phenyl]-N′-(1-phenylethyl)malonamide]
IC50: 2530 nM

COc1cc2nccc(Oc3ccc(NC(=O)CC(=O)NCc4ccccc4)cc3)c2cc1OC [Example 215, N-benzyl-N′-[4-(6,7-dimethoxyquinolin-4-yloxy)phenyl]malonamide]
IC50: 1980 nM

COc1cc2nccc(Oc3ccc(NC(=O)CC(=O)N(C)c4ccccc4)cc3)c2cc1OC [Example 216, N-[4-(6,7-dimethoxyquinolin-4-yloxy)phenyl]-N′-methyl-N′-phenylmalonamide]
IC50: 228 nM

COc1cc2nccc(Oc3ccc(NC(=O)CC(=O)NC4CCCCC4)cc3)c2cc1OC [Example 217, N-cyclohexyl-N′-[4-(6,7-dimethoxyquinolin-4-yloxy)phenyl]malonamide]
IC50: 333 nM

COc1cc2nccc(Oc3ccc(NC(=O)CC(=O)NCC4CCCCC4)cc3)c2cc1OC [Example 218, N-cyclohexylmethyl-N′-[4-(6,7-dimethoxy-quinolin-4-yloxy)phenyl]malonamide]
IC50: 479 nM

COc1cc2nccc(Oc3ccc(NC(=O)CC(=O)Nc4ccc(Cl)cc4)cc3)c2cc1OC [Example 219, N-(4-chlorophenyl)-N′-[4-(6,7-dimethoxy-quinolin-4-yloxy)phenyl]malonamide]
IC50: 736 nM

COc1cc2nccc(Oc3ccc(NC(=O)CC(=O)Nc4cccc(O)c4)cc3)c2cc1OC [Example 220, N-[4-(6,7-dimethoxyquinolin-4-yloxy)phenyl]-N′-(3-hydroxyphenyl)malonamide]
IC50: 297 nM

COc1cc2nccc(Oc3ccc(NC(=O)CC(=O)NCCC(C)(C)C)cc3)c2cc1OC [Example 221, N-[4-(6,7-dimethoxyquinolin-4-yloxy)phenyl]-N′-(3,3-dimethyl-butyl)malonamide]
IC50: 221 nM

COc1cc2nccc(Oc3ccc(NC(=O)CC(=O)Nc4ccc(F)cc4F)c(Cl)c3)c2cc1OC [Example 222, N-[2-chloro-4-(6,7-dimethoxyquinolin-4-yloxy)phenyl]-N′-(2,4-difluorophenyl)malonamide]
IC50: 201 nM

COc1cc2nccc(Oc3ccc(NC(=O)CC(=O)Nc4ccc(F)cc4F)c(C)c3)c2cc1OC [Example 223, N-(2,4-difluorophenyl)-N′-[4-(6,7-dimethoxy-quinolin-4-yloxy)-2-methylphenyl]malonamide]
IC50: 268 nM

COc1cc2nccc(Oc3cc(C)c(NC(=O)CC(=O)Nc4ccc(F)cc4F)cc3C)c2cc1OC [Example 224, N-(2,4-difluorophenyl)-N′-[4-(6,7-dimethoxy-quinolin-4-yloxy)-2,5-dimethylphenyl]malonamide]
IC50: 316 nM

COc1cc2nccc(Oc3ccc(NC(=O)C(C)C(=O)Nc4ccccc4)cc3)c2cc1OC (centres unmarked) [Example 225, N-[4-(6,7-dimethoxyquinolin-4-yloxy)phenyl]-2-methyl-N′-phenylmalonamide]
IC50: 281 nM

COc1cc2nccc(Oc3ccc(NC(=O)C(C)C(=O)NC4CCCCC4)cc3)c2cc1OC (centres unmarked) [Example 226, N-cyclohexyl-N′-[4-(6,7-dimethoxyquinolin-4-yloxy)phenyl]-2-methylmalonamide]
IC50: 3230 nM
